Results published in PMC9184463, “Structural basis of ligand binding modes of human EAAT2” (Nature Communications, 2022).

Tests used:
[1] = system: hEAAT3; set-up: method as in PMID: 7521911; conditions: ref PMID: 7521911; cited from earlier work
[2] = system: hEAAT1; conditions: ref PMID: 7521911; cited from earlier work
[3] = system: hEAAT2; conditions: ref PMID: 7521911; cited from earlier work
[4] = target: T1, wild-type hEAAT2 (Homo sapiens, UniProt P43004); experiment: whole-cell patch-clamp of hEAAT2-associated anion current, wild-type hEAAT2 in HEK293T cells; format: cell-based
T1 construct: Strep Tag II (N); superfolder GFP (sfGFP) (N); expressed in transfected cells; host or cells: HEK293T
Description: (§1) Human embryonic kidney 293T (HEK293T) cells were cultured in Dulbecco’s Modified Eagle Medium (DMEM, Gibco) media supplemented with 15% (v/v) fetal bovine serum (FBS, PAN-Biotech) at 37 °C with 5% CO2. HEK293T cells were grown in the culture dishes (d = 3.5 cm) (Thermo Fisher Scientific) for 24 h and then 1 μg hEAAT2 wild-type and mutant plasmids for per dishes were used to transiently transfect HEK293T using 0.7 μg Lipofectamine 2000 Reagent (Thermo Fisher Scientific). Cells were analyzed using electrophysiological experiments between 24 and 40 h after transfection at room temperature (21–25 °C).
(§2) Electrophysiological experiments were performed as described previously with a minor modification. External buffer contained 140 mM NaCl, 2 mM MgCl2, 2 mM CaCl2, and 10 mM HEPES (pH = 7.4 with NaOH and osmolarity of ∼310 mosmol L^−1) and while internal pipette solution comprised of 130 mM NaSCN, 2 mM MgCl2, 10 mM EGTA, 10 mM HEPES (pH = 7.4 with NaOH and osmolarity of ∼310 mosmol L^−1) and 10 mM glutamate. 50 mM WAY-213613 stock solutions were prepared in dimethyl sulfoxide (DMSO), followed by dilutions to working concentrations with the above-mentioned external buffer. […] Whole cell patch-clamp experiment recordings were made from isolated GFP-positive HEK293T cells (hEAAT2 wild type and mutants). In all, 3–6 MΩ was used to fire a polished pipette (Sutter Instrument). […] Cells were immersed in the above-mentioned external buffer supplemented with a specified concentration of glutamate or WAY-213613. Glutamate-induced anion current, Na^+-dependent anion leak current and glutamate transport current or WAY-213613 inhibited anion leak currents were recorded using an EPC-10 amplifier (HEKA Electronic) at a 20 kHz sample rate with low pass filter at 5 kHz. All experiments were executed at 0 mV. After the cell current was stabilized, glutamate or WAY-213613 was sustained at the indicated concentrations from external dosing for at least 6 s. Subsequently, the cell was washed away with external buffer to start a new round of applications or end the experiment. The plateau currents were used for the following calculations. For analysis, the data was acquired by PatchMaster program (HEKA Electronic) at 5 s after recording. Nonlinear dose–response relationships were fitted into a Michaelis–Menten-like equation shown as below to obtain the apparent Km and Ki values in the presence of glutamate or WAY-213613.1 I/Imax=Km/i/C+Km/i In this equation, I represent the current at different glutamate or inhibitor concentrations, and Imax represents the maximal current at the saturating concentration of glutamate or inhibitor. [C] represents the concentration of glutamate or inhibitor. Km/i represents the apparent constant.

[5] = target: T2, hEAAT2 mutant D475A (Homo sapiens, UniProt P43004, D475A); experiment: whole-cell patch-clamp, hEAAT2 mutant D475A in HEK293T cells; format: cell-based
T2 construct: Strep Tag II (N); superfolder GFP (sfGFP) (N); expressed in transfected cells; host or cells: HEK293T
Description: as §1, §2

[6] = target: T3, hEAAT2 mutant R478A (Homo sapiens, UniProt P43004, R478A); experiment: whole-cell patch-clamp, hEAAT2 mutant R478A in HEK293T cells; format: cell-based
T3 construct: Strep Tag II (N); superfolder GFP (sfGFP) (N); expressed in transfected cells; host or cells: HEK293T
Description: as §1, §2

[7] = target: T4, hEAAT2 mutant S441G (Homo sapiens, UniProt P43004, S441G); experiment: whole-cell patch-clamp, hEAAT2 mutant S441G in HEK293T cells; format: cell-based; conditions: 0 mV; for glutamate-induced current, normalized (MEAN): S441G, normalized to maximal current
T4 construct: Strep Tag II (N); superfolder GFP (sfGFP) (N); expressed in transfected cells; host or cells: HEK293T
Description: as §1, §2

[8] = target: T5, hEAAT2 mutant I464V (Homo sapiens, UniProt P43004, I464V); experiment: whole-cell patch-clamp, hEAAT2 mutant I464V in HEK293T cells; format: cell-based; conditions: for glutamate-induced current, normalized (MEAN): I464V, 0 mV
T5 construct: Strep Tag II (N); superfolder GFP (sfGFP) (N); expressed in transfected cells; host or cells: HEK293T
Description: as §1, §2

[9] = target: T6, hEAAT2 mutant L467I (Homo sapiens, UniProt P43004, L467I); experiment: whole-cell patch-clamp, hEAAT2 mutant L467I in HEK293T cells; format: cell-based; conditions: for glutamate-induced current, normalized (MEAN): L467I, 0 mV
T6 construct: Strep Tag II (N); superfolder GFP (sfGFP) (N); expressed in transfected cells; host or cells: HEK293T
Description: as §1, §2

[10] = target: T7, hEAAT2 mutant V468I (Homo sapiens, UniProt P43004, V468I); experiment: whole-cell patch-clamp, hEAAT2 mutant V468I in HEK293T cells; format: cell-based; conditions: for glutamate-induced current, normalized (MEAN): V468I, 0 mV
T7 construct: Strep Tag II (N); superfolder GFP (sfGFP) (N); expressed in transfected cells; host or cells: HEK293T
Description: as §1, §2

[11] = 3 μM glutamate, normalized to current at 1000 μM
[12] = 10 μM glutamate, normalized to current at 1000 μM
[13] = 30 μM glutamate, normalized to current at 1000 μM
[14] = 100 μM glutamate, normalized to current at 1000 μM
[15] = 300 μM glutamate, normalized to current at 1000 μM
[16] = 1000 μM glutamate, normalization reference

T1 sequence (P43004 whole entry, the tested form may be a part): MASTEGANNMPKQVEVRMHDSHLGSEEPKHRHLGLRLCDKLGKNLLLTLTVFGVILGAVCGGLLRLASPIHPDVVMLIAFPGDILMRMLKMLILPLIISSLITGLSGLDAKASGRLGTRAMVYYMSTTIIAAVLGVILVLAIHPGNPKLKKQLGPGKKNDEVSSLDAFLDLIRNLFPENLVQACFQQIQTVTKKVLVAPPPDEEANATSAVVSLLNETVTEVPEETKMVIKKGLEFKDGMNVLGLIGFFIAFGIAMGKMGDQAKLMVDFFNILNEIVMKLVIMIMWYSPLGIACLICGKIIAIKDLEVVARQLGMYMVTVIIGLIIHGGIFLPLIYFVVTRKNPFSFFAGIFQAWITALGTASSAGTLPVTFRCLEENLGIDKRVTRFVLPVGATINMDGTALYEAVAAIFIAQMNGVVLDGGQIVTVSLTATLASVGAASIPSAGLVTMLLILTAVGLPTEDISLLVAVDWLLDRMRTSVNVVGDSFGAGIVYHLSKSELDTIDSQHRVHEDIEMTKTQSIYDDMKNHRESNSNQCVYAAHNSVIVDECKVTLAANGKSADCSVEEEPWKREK
T2 sequence (P43004 whole entry D475A): as the sequence (P43004 whole entry, the tested form may be a part) above, with D475A counted along it
T6 sequence (P43004 whole entry L467I): as the sequence (P43004 whole entry, the tested form may be a part) above, with L467I counted along it
T5 sequence (P43004 whole entry I464V): as the sequence (P43004 whole entry, the tested form may be a part) above, with I464V counted along it
T3 sequence (P43004 whole entry R478A): as the sequence (P43004 whole entry, the tested form may be a part) above, with R478A counted along it
T7 sequence (P43004 whole entry V468I): as the sequence (P43004 whole entry, the tested form may be a part) above, with V468I counted along it
T4 sequence (P43004 whole entry S441G): as the sequence (P43004 whole entry, the tested form may be a part) above, with S441G counted along it

## N[C@@H](CC(=O)O)C(=O)O [aspartate]
[1]
  Km: 47 µM
[2]
  Km: 60 µM
[3]
  Km: 54 µM

## N[C@@H](CCC(=O)O)C(=O)O [glutamate]
[4]; 3 μM glutamate, WT, 0 mV, normalized to current at 1000 μM glutamate
  glutamate-induced current, normalized (MEAN): 0.1101
[4]; 10 μM glutamate, WT, 0 mV, normalized to current at 1000 μM glutamate
  glutamate-induced current, normalized (MEAN): 0.2265
[4]; 30 μM glutamate, WT, 0 mV, normalized to current at 1000 μM glutamate
  glutamate-induced current, normalized (MEAN): 0.5388
[4]; 100 μM glutamate, WT, 0 mV, normalized to current at 1000 μM glutamate
  glutamate-induced current, normalized (MEAN): 0.751
[4]; 300 μM glutamate, WT, 0 mV, normalized to current at 1000 μM glutamate
  glutamate-induced current, normalized (MEAN): 0.9307
[4]; 1mM Glutamate, WT, 0 mV, Na+ dependent leak current subtracted
  glutamate-related current density (MEAN): -27.6784 pA/pF
[4]; 1000 μM glutamate, WT, 0 mV, normalization reference
  glutamate-induced current, normalized (MEAN): 1
[4]; wild-type hEAAT2
  effect of substrate on anion leak currents: increased the amplitudes of anion leak currents
[4]; wild-type hEAAT2, HEK293T, 0 mV, Michaelis-Menten-like fit, read-out: apparent Km (activation of anion current)
  Km: 30 ± 2.5 µM
[5]; 1mM Glutamate, D475A, 0 mV, Na+ dependent leak current subtracted
  glutamate-related current density (MEAN): 1.113 pA/pF
[5]; D475A mutant, glutamate up to 1 mM
  activation of anion currents: failed to activate anion currents
[6]; 1mM Glutamate, R478A, 0 mV, Na+ dependent leak current subtracted
  glutamate-related current density (MEAN): 0.4954 pA/pF
[6]; R478A mutant, glutamate up to 1 mM
  activation of anion currents: failed to activate anion currents
[7]; 0.1 μM glutamate
  glutamate-induced current, normalized (MEAN): 0.1494
[7]; 0.3 μM glutamate
  glutamate-induced current, normalized (MEAN): 0.4931
[7]; 1 μM glutamate
  glutamate-induced current, normalized (MEAN): 0.73
[7]; 3 μM glutamate
  glutamate-induced current, normalized (MEAN): 0.9123
[7]; 10 μM glutamate
  glutamate-induced current, normalized (MEAN): 1
[7]; 30 μM glutamate
  glutamate-induced current, normalized (MEAN): 1.038
[7]; S441G mutant, read-out: apparent Km
  Km: 0.4 ± 0.03 µM
[8]; [11]
  glutamate-induced current, normalized (MEAN): 0.1004
[8]; [12]
  glutamate-induced current, normalized (MEAN): 0.2675
[8]; [13]
  glutamate-induced current, normalized (MEAN): 0.5257
[8]; [14]
  glutamate-induced current, normalized (MEAN): 0.7538
[8]; [15]
  glutamate-induced current, normalized (MEAN): 0.9218
[8]; [16]
  glutamate-induced current, normalized (MEAN): 1
[8]; I464V mutant, glutamate in external solution
  activation of anion current: significantly activate anion current with similar efficacy as that of wild-type hEAAT2
[9]; [11]
  glutamate-induced current, normalized (MEAN): 0.09492
[9]; [12]
  glutamate-induced current, normalized (MEAN): 0.2532
[9]; [13]
  glutamate-induced current, normalized (MEAN): 0.5328
[9]; [14]
  glutamate-induced current, normalized (MEAN): 0.7948
[9]; [15]
  glutamate-induced current, normalized (MEAN): 0.9242
[9]; [16]
  glutamate-induced current, normalized (MEAN): 1
[9]; L467I mutant, glutamate in external solution
  activation of anion current: significantly activate anion current with similar efficacy as that of wild-type hEAAT2
[10]; [11]
  glutamate-induced current, normalized (MEAN): 0.1059
[10]; [12]
  glutamate-induced current, normalized (MEAN): 0.2526
[10]; [13]
  glutamate-induced current, normalized (MEAN): 0.5136
[10]; [14]
  glutamate-induced current, normalized (MEAN): 0.8108
[10]; [15]
  glutamate-induced current, normalized (MEAN): 0.9282
[10]; [16]
  glutamate-induced current, normalized (MEAN): 1
[10]; V468I mutant, glutamate in external solution
  activation of anion current: significantly activate anion current with similar efficacy as that of wild-type hEAAT2
[1]
  Km: 62 µM
[2]
  Km: 48 µM
[3]
  Km: 97 µM
